Reference: patent publication US10227374B2, “Silyl etherified derivatives of 5-azacytidines in carbohydrate moiety” (OHARA PHARMACEUTICAL CO., LTD., priority 2016, dated 2019)
Like-named read-outs stand apart in the source and are kept apart here.

Legend:
[1] = target: cytidine deaminase: CDA (1-146aa), Human, His-tagged, Recombinant (Homo sapiens, UniProt P32320); experiment: Stability against cytidine deaminase (HPLC)
Protocol: Stability of Silyl Etherified Derivatives of 5-azacytidines in Carbohydrate Moiety Against Cytidine Deaminase
About 1 mg each of the silyl etherified derivatives of 5-azacytidines in carbohydrate moiety (referring to formula (1a)) was dissolved in 1 mL of acetonitrile. 10 μL of the solution was diluted with 1 mL of PBS. 10 μL of PBS solution of cytidine deaminase was added to the solution and stirred at 37° C. for about 1 hour. 1 mL of acetonitrile was added to the reaction solution and separated by centrifugation. The supernatant was analyzed with HPLC.
Cytidine deaminase: CDA (1-146aa), Human, His-tagged, Recombinant cytidine deaminase (ATGen)
Column: CAPCELL PAK ADME (4.6 mm×150 mm, particle size: 3 μm)
Elution: eluate A=Purified water containing 10 mM ammonium formate • eluate B=Acetonitrile • Gradient mode: A:B=99:1→5:95/30 minutes

RPMI-8226 myeloma cells = experiment: Anti-myeloma activity, inhibition of cell proliferation; format: cell-based; details: Homo sapiens, 72 hours incubation, cell count
Protocol: After incubation in RPMI-1640 (containing 10% FBS and 1% Penn-strep) for 72 hours, cell count was determined and IC50 values were calculated as inhibitory effect against cell proliferation (referring to Journal of Clinical Pathology, 2006, 59, 947-951.).

[2] = Non-enzymatic hydrolysis in PBS solution at 37° C. (HPLC); format: physicochemical; details: 10 mM PBS; for 5-Azacytidine or 2′-deoxy-5-azacytidine (%) After 4 hours / 5-Azacytidine or 2′-deoxy-5-azacytidine (%) After 8 hours / 5-Azacytidine or 2′-deoxy-5-azacytidine (%) After 24 hours: released parent by HPLC; for production of the desilylated parent (5-azacytidine or 2′-deoxy-5-azacytidine): traced by HPLC
Protocol: Non-Enzymatic Hydrolysis of Silyl Etherified Derivatives of 5-Azacytidines in Carbohydrate Moiety
5 μL of the solution was added to 100 μL of 10 mM PBS solution and stirred at 37° C. The reactions were traced by HPLC analysis.
HPLC conditions were same as those in test example 1.

[3] = PBS, cytidine deaminase, 37° C., about 1 hour, peak of the starting material

Sequence of cytidine deaminase: CDA (1-146aa), Human, His-tagged, Recombinant (P32320 whole entry): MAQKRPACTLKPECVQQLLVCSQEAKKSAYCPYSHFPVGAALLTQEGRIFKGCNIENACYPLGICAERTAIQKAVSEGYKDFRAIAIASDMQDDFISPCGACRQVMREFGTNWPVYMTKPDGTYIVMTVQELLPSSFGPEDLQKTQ

Compound | stability against cytidine deaminase (in words) ([1]; PBS, cytidine deaminase, 37° C.) | Change in HPLC pattern [1, 3] | IC50 (RPMI-8226 myeloma cells) [µM] | Change in HPLC pattern [1] | 5-Azacytidine or 2′-deoxy-5-azacytidine (%) After 4 hours [2] [%] | 5-Azacytidine or 2′-deoxy-5-azacytidine (%) After 8 hours [2] [%] | 5-Azacytidine or 2′-deoxy-5-azacytidine (%) After 24 hours [2] [%] | production of the desilylated parent (5-azacytidine or 2′-deoxy-5-azacytidine) [2]
Nc1ncn([C@H]2C[C@H](O)[C@@H](CO)O2)c(=O)n1 [2′-Deoxy-5-azacytidine, 2′-deoxy-5-azacytidine, reference compound] | disappeared completely | The peak of the starting material disappeared | 0.03 |  |  |  |  | 
CC[Si](CC)(CC)OC[C@H]1O[C@@H](n2cnc(N)nc2=O)[C@H](O)[C@@H]1O [compound J, 5′-O-Triethylsilyl-5-azacytidine] |  |  | 0.656 | Almost no change in the peak of the starting | 16 | 22 | 62 | production of 5-azacytidine was confirmed
CC[Si](CC)(CC)OC[C@H]1O[C@@H](n2cnc(N)nc2=O)C[C@@H]1O [compound K, 5′-O-Triethylsilyl-2′-deoxy-5-azacytidine] |  | Almost no change in the peak of the starting | 0.27 |  | 10 | 12 | 48 | production of corresponding deskill form (2′-deoxy-5-azacytidine) was confirmed
CC(C)(C)[Si](C)(C)OC[C@H]1O[C@@H](n2cnc(N)nc2=O)[C@H](O)[C@@H]1O [compound E, 5′-O-(tert-Butyldimethylsilyl)-5-azacytidine] |  |  |  | Almost no change in the peak of the starting |  |  |  | 
